Test results published in patent publication US5457030A, “Method and composition for determining antimicrobial susceptibility of the majority clinically significant Gram postitive organism” (MicroScan, Inc., priority 1993, dated 1995).
Converted amounts (≈) assume the structure as drawn. Where two headings read alike, the source gives them in different places.

Assays:
[1] = system: Enterococcus faecalis; test: Percent fluorescence (growth) in wells containing antimicrobial agents, Example 1 (Table 6); assay type: cell-based
Description: (§1) A primary inoculum suspension of a bacterial isolate in saline-pluronic, equivalent to a 0.5 McFarland turbidity standard is prepared. The final inoculum suspension is prepared by diluting a 0.3 ml aliquot of the primary suspension in 25 ml of Rapid Pos Inoculum Broth (B1015-14, Baxter Diagnostics Inc., MicroScan Division, West Sacramento, Calif.). A 115 μl of the final inoculum is added to the growth compartment which contains dried material of fluorogenic enzyme substrates equivalent to 0.023 mM leucine-7-amido-4-methylcoumarin, 0.012 mM phenylalanine-7-amido-4-methylcoumarin and 0.058 mM methylumbelliferyl phosphate and 1.15 mM HEPES buffer at pH 7.0. The final inoculum is also added to a number of compartments containing dried material identical to that in the growth well and different concentrations of an antimicrobial agent. An aliquot of the final inoculum is also added to a compartment, containing only dried HEPES buffer, acting as a control. The inoculated multicompartment device (panel) is inserted in the autoSCAN®-W/A. The fluorescence of each compartment is measured at predetermined times and a Growth Index is calculated by dividing the fluorescence of the growth compartment by that of the negative control compartment.
^FL growth - ^FL control
(§2) If the value of the Growth Index is equal to or exceeds a specified value, the Minimum Inhibitory Concentration for every antimicrobial agent present in the multicompartment device is calculated. Otherwise the device is returned to its position and measured again at the next read time. The read times in this example are 3.5, 4.5, 5.5, 7.0, 8.0, 11.0, and 15.0 hours. For calculation of minimum inhibitory concentration, the percent fluorescence of compartments containing the different concentrations of the antimicrobial agent is calculated by subtracting from each compartment the fluorescence of the control well and dividing it by the delta fluorescence of the growth compartment, obtained by subtracting the fluorescence of the negative control compartment from the fluorescence of the growth compartment. The minimum inhibitory concentration is calculated using a mathematical model specific for each concentration range of the antimicrobial agent. Using a mathematical model based on discriminate functional analysis, the minimum inhibitory concentration of each antimicrobial agent, for the organism tested, can be determined. Utilization of a discriminate function analysis model in microbiological pattern recognition is described in S. Bascomb, Computers in Taxonomy and Systematics, p. 65-102 In T. N. Bryant and J. W. T. Wimpenny (Ed.), Computers in Microbiology, a Practical Approach (IRL Press, Oxford). In an alternative embodiment the minimum inhibitory concentration for each antimicrobial agent for the organism tested can be determined by a breakpoint or threshold method or linear regression analysis. J. McKie, et al., Antimicrobial Agents and Chemotherapy (1980) v. 17, 813-823.
(§3) In Example 1, the growth of Enterococcus faecalis in wells containing specified amounts of antimicrobial agents is estimated by measurement of fluorescence. In Table 6, the percent fluorescence at different concentrations of antimicrobial agents is reported. For example, 0.12, 0.25, 0.5, 1, 2, 4 and 8 μg/mL of ampicillin (Am) were present in the microdilution wells.
The numbers 105, 105, 67, 7, 6, 5, 6 are percent fluorescence values as calculated in […]. These figures are used to determine susceptibility according to the methods discussed on pages 12 and 13.

[2] = system: Enterococcus faecalis; test: Minimum inhibitory concentration determination, Example 1 (Table 7); assay type: cell-based
Description: as §1, §2, §3
In Table 7, the minimum inhibitory concentration for Example 1 are reported.

[3] = Enterococcus faecalis, read-out: percent fluorescence
[4] = Enterococcus faecalis, read-out: concentration at which organism was found to be susceptible
[5] = Enterococcus faecalis, read-out: minimum inhibitory concentration
[6] = Enterococcus faecalis, 4 μg/mL, read-out: percent fluorescence
[7] = Enterococcus faecalis, 8 μg/mL, read-out: percent fluorescence
[8] = Enterococcus faecalis, Table 7, Example 1, read-out: concentration at which organism was found to be susceptible
[9] = Table 7, Enterococcus faecalis, Example 1, read-out: minimum inhibitory concentration

Row | Compound | activity at 0.5 µg/mL [1, 3] | activity at 1 µg/mL [1, 3] | activity at 2 µg/mL [1, 3] | activity at 4 µg/mL [1, 3] | MIC [2, 4] | MIC [2, 5] | activity at 8 µg/mL [1, 3] | also measured
1 | CC[C@H]1OC(=O)[C@H](C)[C@@H](O[C@H]2C[C@@](C)(OC)[C@@H](O)[C@H](C)O2)[C@H](C)[C@@H](O[C@@H]2O[C@H](C)C[C@H](N(C)C)[C@H]2O)[C@](C)(O)C[C@@H](C)C(=O)[C@H](C)[C@@H](O)[C@]1(C)O [Erythromycin] | 9% | 5% | 5% | 4% | 4 µg/mL (≈ 5.45 µM) | 4 µg/mL (≈ 5.45 µM) | – | activity at 0.25 µg/mL [1, 3]: 59%
2 | C[C@@H](O)[C@H]1C(=O)N2C(C(=O)O)=C(SCCN=CN)C[C@H]12 [Imipenem] | – | – | – | – | – | – | – | activity at 1 µg/mL ([1]; Enterococcus faecalis, 1 μg/mL, read-out: percent fluorescence): 65%; activity at 2 µg/mL ([1]; Enterococcus faecalis, 2 μg/mL, read-out: percent fluorescence): 5%; activity at 4 µg/mL [1, 6]: 5%; activity at 8 µg/mL [1, 7]: 5%; MIC [2, 8]: 4 µg/mL (≈ 13.4 µM); MIC [2, 9]: 4 µg/mL (≈ 13.4 µM)
3 | O=C1CN(/N=C/c2ccc([N+](=O)[O-])o2)C(=O)N1 [Nitrofurantoin] | – | – | – | – | – | – | – | activity at 32 µg/mL ([1]; Enterococcus faecalis, 32 μg/mL): 86%; activity at 46 µg/mL ([1]; Enterococcus faecalis, 46 μg/mL (printed 46Fd)): 21%; MIC [2, 8]: < 32 µg/mL; MIC [2, 9]: < 32 µg/mL
4 | CCn1cc(C(=O)O)c(=O)c2cc(F)c(N3CCNCC3)cc21 [Norfloxacin] | – | – | – | – | – | – | – | activity at 4 µg/mL [1, 6]: 6%; activity at 8 µg/mL [1, 7]: 6%; MIC [2, 8]: < 4 µg/mL; MIC [2, 9]: < 4 µg/mL
5 | Cc1onc(-c2ccccc2)c1C(=O)N[C@@H]1C(=O)N2[C@@H]1SC(C)(C)[C@@H]2C(=O)O [Oxacillin] | 98% | 100% | 99% | 95% | – | – | 90% | activity at 0.25 µg/mL [1, 3]: 103%
6 | CC1(C)S[C@@H]2[C@H](NC(=O)Cc3ccccc3)C(=O)N2[C@H]1C(=O)O [Penicillin] | 105% | 93% | 12% | 7% | – | – | 7% | activity at 0.03 µg/mL [1, 3]: 99%; activity at 0.06 µg/mL [1, 3]: 104%; activity at 0.12 µg/mL [1, 3]: 105%; activity at 25 µg/mL [1, 3]: 105%
7 | CO[C@H]1/C=C/O[C@@]2(C)Oc3c(C)c(O)c4c(O)c(c(/C=N/N5CCN(C)CC5)c(O)c4c3C2=O)NC(=O)/C(C)=C\C=C\[C@H](C)[C@H](O)[C@@H](C)[C@@H](O)[C@@H](C)[C@H](OC(C)=O)[C@@H]1C [Rifampin] | – | 58% | 21% | – | 2 µg/mL (≈ 2.43 µM) | 2 µg/mL (≈ 2.43 µM) | – | –
8 | CN[C@@H]1[C@H](O[C@H]2[C@H](O[C@H]3[C@H](O)[C@@H](O)[C@H](N=C(N)N)[C@@H](O)[C@@H]3N=C(N)N)O[C@@H](C)[C@]2(O)C=O)O[C@@H](CO)[C@H](O)[C@H]1O [Streptomycin Synergy Screen] | – | – | – | – | – | – | – | percent fluorescence ([1]; synergy screen well): 5%; Streptomycin Synergy Screen result in Table 7 ([2]; Table 7, Enterococcus faecalis, Example 1): 5; susceptibility to synergy screen ([2]; Table 7, Example 1): susceptible
9 | CN(C)C1C(=O)C(C(N)=O)=C(O)C2(O)C(=O)C3=C(O)c4c(O)cccc4C(C)(O)C3CC12 (centres unmarked) [Tetracycline] | 91% | 85% | 79% | 71% | 128 µg/mL (≈ 288 µM) | 128 µg/mL (≈ 288 µM) | 62% | activity at 128 µg/mL [1, 3]: 37%
10 | CN[C@H](CC(C)C)C(=O)N[C@H]1C(=O)N[C@@H](CC(N)=O)C(=O)N[C@H]2C(=O)N[C@H]3C(=O)N[C@H](C(=O)N[C@H](C(=O)O)c4cc(O)cc(O)c4-c4cc3ccc4O)[C@H](O)c3ccc(c(Cl)c3)Oc3cc2cc(c3O[C@@H]2O[C@H](CO)[C@@H](O)[C@H](O)[C@H]2O[C@H]2C[C@](C)(N)[C@H](O)[C@H](C)O2)Oc2ccc(cc2Cl)[C@H]1O [Vancomycin] | – | – | 5% | 5% | < 2 µg/mL | < 2 µg/mL | 5% | activity at 16 µg/mL [1, 3]: 2%
11 | Gentamicin | – | – | – | – | – | – | – | percent fluorescence ([1]; 1 μg/mL): 105%; percent fluorescence ([1]; 2 μg/mL): 99%; percent fluorescence ([1]; 4 μg/mL): 95%; percent fluorescence ([1]; 6 μg/mL): 93%; percent fluorescence ([1]; 8 μg/mL): 93%
